This assay has as its system Holstein calves. Put plainly: Test on anion regulating activity (urinary pH). It is filed as in vivo. The note with it: Table 3 and FIG. 1 summary. The procedure: If a DCAD value is positive, the urinary pH is 7-8.5. It is also known that if an anion regulator is added, and as a result the feed is changed to show a negative DCAD value, the urinary pH of animals to which such feed has been fed is reduced and will show a value of 6.5-5.5 when the anion regulator has been added in an appropriate amount. […] (1995), Sep., p.634 (Japanese version).
Experiments were conducted using six(6) Holstein calves with a body weight of approximately 200 kg. They were divided into three groups, two calves in a group. The groups were each fed with one of the following three(3) types of experimental feeds. Feed consisting of […] concentrated feed (“Beef-fast”, ex Itochu Feed Co.), 550 g of timothy-hay and 550 g of alfalfa hay cubes was fed, twice a day, at 9 and 16 o'clock, for one week before the start of the experiment, for adaptation.
These three(3) types of mixed feeds were separately supplied to each group at 9 and 16 o'clock on the same day and at 9 o'clock on the next day. After 10 minutes, each mixed feed was removed, and subsequently, a mixture of 900 g of concentrated feed, 500 g of timothy-hay and 550 g of alfalfa hay cubes, was supplied instead.
In the table and figure, for example, terms Lys HCl 1 and Lys HCl 2 indicate respectively the two calves in the first group which was fed with Lys HCl (Lys HCl-feeded group).

Consider `Cl.N=C(N)NCCC[C@H](N)C(=O)O` [L-arginine hydrochloride, L-arginine monohydrochloride], for which the “Effectiveness as anion regulator” value is on record as “effective as anion regulators” and the “Reduction of urinary pH compared with NH4Cl” value is reported as “reduce urinary pH better than NH4Cl”.

Regarding `Cl.NCCCC[C@H](N)C(=O)O` [L-lysine hydrochloride, L-lysine monohydrochloride], the “Effectiveness as anion regulator” value is listed as “effective as anion regulators” and the “Reduction of urinary pH compared with NH4Cl” value is on record as “reduce urinary pH better than NH4Cl”.

The record behind these values is patent publication US20020127268A1, “Anion regulator for ruminants” (AJINOMOTO CO., INC., priority 1997, published 2002).
